These results are taken from ChEMBL document CHEMBL1148380, “Quantitative structure-activity relationships for gammadelta T cell activation by bisphosphonates” (J Med Chem, 2004).

What all share (assay type): functional, cell-based
Common to all, as to conditions: Homo sapiens, T-cell

Assay [1] in a line: Inhibitory activity, for stimulation of TNF-alpha release in gamma-delta T cells, using a constrained maximum TNF-alpha release of 2700 pg/mL.
A short description of assay [2]: Inhibitory activity, for stimulation of TNF-alpha release in gamma-delta T cells, using individual observed maximum TNF-alpha release.
Assay [3] can be described thus: pIC50 value for stimulation of TNF-alpha release in gamma-delta T cells, using a constrained maximum TNF-alpha release of 2700 pg/mL.
Assay [4] can be described thus: pIC50 value for stimulation of TNF-alpha release in gamma-delta T cells, using individual observed maximum TNF-alpha release.

pIC50: −log10 of the molar value.

For the molecule `O=P(O)(O)C(O)(Cc1cnc2ccccn12)P(=O)(O)O` [MINODRONIC ACID], the pIC50 in assay [1] was 5.10; in assay [2] it was 5.39; in assay [3] it was 5.10; in assay [4], 5.39.
As for `O=P(O)(O)C(O)(Cc1ccncc1)P(=O)(O)O`, the pIC50 in assay [1] is 4.68; in assay [2], 4.66; in assay [3], 4.68; in assay [4] it was 4.67.
Consider `CC(CCCCc1ccccc1)CCC(O)(P(=O)(O)O)P(=O)(O)O` (centres undefined), for which the pIC50 in assay [1] is 4.80; in assay [2], 5.00; in assay [3] it was 4.79; in assay [4] it was 5.00.
As for `CN(C)CCC(O)(P(=O)(O)O)P(=O)(O)O` [OLPADRONIC ACID], the negative logarithm of the IC50 (pIC50) in assay [1] is 3.95; in assay [2], 4.34; in assay [3], 3.95; in assay [4], 4.33.
Turning to `O=P(O)(O)C(CNc1ccncc1)P(=O)(O)O`, the pIC50 is 4.80 in assay [1], 5.00 in assay [2], 4.79 in assay [3] and 5.00 in assay [4].
With `CCCCCC(O)(P(=O)(O)O)P(=O)(O)O`, the pIC50 was 2.79 in assay [1], 4.05 in assay [2], 2.79 in assay [3] and 4.04 in assay [4].
In the case of `O=P(O)(O)C(CNc1ccccn1)P(=O)(O)O`, the pIC50 in assay [1] was 4.85; in assay [2] it was 5.32; in assay [3], 4.84; in assay [4] it was 5.31.
Taken in the same sequence, the figures for `CN(CCc1ccccc1)CCC(O)(P(=O)(O)O)P(=O)(O)O` were 4.64, 4.72, 4.64 and 4.71.
Taken in the same sequence, the figures for `O=P(O)(O)C(O)(Cc1ccccc1)P(=O)(O)O` were 2.55, 3.40, 2.55 and 3.40.
In the same order, the values of `NCCCCCC(O)(P(=O)(O)O)P(=O)(O)O` [NERIDRONIC ACID] are 3.30, 5.71, 3.30 and 3.71.
In the case of `O=P(O)(O)C(O)(Cc1c[nH]cn1)P(=O)(O)O`, the negative logarithm of the IC50 (pIC50) in assay [1] was 4.92; in assay [2], 5.11; in assay [3], 4.92; in assay [4], 5.11.
`O=P(O)(O)C(NC1CCCCC1)P(=O)(O)O` [(CYCLOHEXYLAMINO)METHYLENEDIPHOSPHONIC ACID]: the pIC50 in assay [1] was 4.33; in assay [2] it was 4.40; in assay [3] it was 4.33; in assay [4], 4.40.
`CCC(C)CNC(P(=O)(O)O)P(=O)(O)O` (centres undefined): the negative logarithm of the IC50 (pIC50) in assay [1] was 4.72; in assay [2], 5.05; in assay [3], 4.71; in assay [4] it was 5.05.
In the case of `CCCCCCCCCNC(P(=O)(O)O)P(=O)(O)O` [(NONYLAMINO)METHYLENEDIPHOSPHONIC ACID], the negative logarithm of the IC50 (pIC50) was 3.77 in assay [1], 4.18 in assay [2], 3.77 in assay [3] and 4.18 in assay [4].
As to `O=P(O)(O)C(N1CCCCCC1)P(=O)(O)O` [N-(HEXAMETHYLENEIMINO)METHYLENEBISPHOSPHONIC ACID], the pIC50 was 4.89 in assay [1], 4.96 in assay [2], 4.89 in assay [3] and 4.95 in assay [4].
For `O=P(O)(O)C(O)(CCc1cccnc1)P(=O)(O)O`, the pIC50 in assay [1] was 3.04; in assay [2], 3.64; in assay [3], 3.04; in assay [4], 3.64.
Regarding `CCCCCN(C)CCC(O)(P(=O)(O)O)P(=O)(O)O` [IBANDRONIC ACID], the pIC50 in assay [1] was 4.51; in assay [2], 4.51; in assay [3] it was 4.51; in assay [4] it was 4.50.
Regarding `CN(CCCc1ccccc1)CCC(O)(P(=O)(O)O)P(=O)(O)O`, the pIC50 in assay [1] was 3.92; in assay [2], 4.20; in assay [3] it was 3.92; in assay [4] it was 4.20.
As for `O=P(O)(O)C(O)(Cc1cccnc1)P(=O)(O)O` [RISEDRONIC ACID], the negative-log IC50 (pIC50) was 5.21 in assay [1], 5.16 in assay [2], 5.21 in assay [3] and 5.16 in assay [4].
With `CC(C)CCNC(P(=O)(O)O)P(=O)(O)O` [(ISOPENTYLAMINO)METHYLENEDIPHOSPHONIC ACID], the negative-log IC50 (pIC50) in assay [1] was 4.33; in assay [2] it was 4.40; in assay [3], 4.33; in assay [4] it was 4.40.
On to `NCCCC(O)(P(=O)(O)O)P(=O)(O)O` [ALENDRONIC ACID], for which the pIC50 in assay [1] is 4.28; in assay [2], 4.28; in assay [3] it was 4.28; in assay [4], 4.27.

In general, pIC50 refers to −log10 of the IC50, conventionally taken in molar units.
